For 38 compounds, Ki results are on record in patent US8188284B2, “2-aminoquinolines” (Hoffman-La Roche Inc., priority 2008, dated 2012).

SMILES strings stand for the structures.

For this test, the target named is T1, recombinant human 5-HT5A receptor (Homo sapiens, UniProt P47898).
T1 construct: expressed in transfected cells; host or cells: HEK-EBNA (Human Embryonic Kidney-EBNA) cells, transient cDNA expression, membranes
T1 sequence (P47898 whole entry): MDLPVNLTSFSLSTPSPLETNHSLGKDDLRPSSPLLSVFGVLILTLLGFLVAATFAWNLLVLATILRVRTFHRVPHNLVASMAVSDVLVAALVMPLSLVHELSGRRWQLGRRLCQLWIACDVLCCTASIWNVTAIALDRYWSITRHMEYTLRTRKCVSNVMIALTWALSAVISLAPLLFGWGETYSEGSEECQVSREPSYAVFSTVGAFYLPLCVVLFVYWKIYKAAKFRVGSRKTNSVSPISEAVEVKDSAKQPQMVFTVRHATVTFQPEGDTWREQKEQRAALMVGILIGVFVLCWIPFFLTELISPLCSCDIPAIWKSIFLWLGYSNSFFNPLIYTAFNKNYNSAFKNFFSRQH
In words: [3H]LSD radioligand binding assay. Particulars: [3H]LSD (approximately 1 nM), membranes from HEK-EBNA cells transiently expressing 5-HT5A receptors; Ki calculated from IC50 using the Cheng-Prussoff equation; read-out: Ki/nM 5-HT5A. The procedure: A [^3H]LSD radioligand binding assay was used to determine the affinity of the compounds for the recombinant human 5-HT5A receptor, in membranes from transiently (cDNA) expressed 5-HT5A receptors in Human Embryonic Kidney-EBNA (HEK-EBNA) cells. Assay buffer consisted of Tris (50 mM) buffer containing 1 mM EGTA, 10 mM MgCl2 (pH 7.4) and 10 μM pargyline. The binding assay was carried out in 96-well-plates in the presence of [^3H]LSD (approximately 1 nM), approximately 2 μg/well of membrane protein, and 0.5 mg of Ysi-poly-1-lysine SPA beads in a final volume of 200 μl of buffer. Non-specific binding was defined using methiothepin 2 μM. Compounds were tested at 10 concentrations. All assays were conducted in duplicate and repeated at least two times. Assay plates were incubated for 120 min at room temperature before centrifugation. Bound ligand was determined using a Packard Topcount scintillation counter. IC50 values were calculated using a non-linear curve fitting program and Ki values calculated using the Cheng-Prussoff equation.
As for `c1ccc2c(c1)CC[C@H]2Nc1ccc2cc(-n3ccnc3)ccc2n1` [Example 61, (6-Imidazol-1-yl-quinolin-2-yl)-(R)-indan-1-yl-amine], the Ki is 422 nM.

On to `CN(c1ccc(F)cc1)S(=O)(=O)Nc1ccc2nc(N[C@@H]3CCc4ccccc43)ccc2c1` [Example 41, N′-{2-[(1R)-2,3-dihydro-1H-inden-1-ylamino]quinolin-6-yl}-N-(4-fluorophenyl)-N-methylsulfamide], for which the Ki was 25.8 nM.

Consider `c1cncc(CNc2ccc3nc(N[C@@H]4CCc5ccccc54)ccc3c2)c1` [Example 4, N^2—(R)-Indan-1-yl-N^6-pyridin-3-ylmethyl-quinoline-2,6-diamine], for which the Ki was 9.8 nM.

For the compound `O=C(Nc1ccc2nc(N[C@@H]3CCc4ccccc43)ccc2c1)c1ccc(F)cc1` [Example 50, 4-Fluoro-N-[2-((R)-indan-1-ylamino)-quinolin-6-yl]-benzamide], the Ki was 72.5 nM.

As for `CN(c1ccc2nc(N[C@@H]3CCc4ccccc43)ccc2c1)c1ccccn1` [Example 85, N^2—(R)-Indan-1-yl-N^6-methyl-N^6-pyridin-2-yl-quinoline-2,6-diamine], the Ki was 225 nM.

In the case of `O=C(NC(=S)Nc1ccc2nc(N[C@@H]3CCc4ccccc43)ccc2c1)c1ccccc1` [Example 63, 1-Benzoyl-3-[2-((R)-indan-1-ylamino)-quinolin-6-yl]-thiourea], the Ki is 390 nM.

For `O=C(Nc1cccc(F)c1)Nc1ccc2nc(N[C@@H]3CCc4ccccc43)ccc2c1` [Example 20, 1-(3-Fluoro-phenyl)-3-[2-((R)-indan-1-ylamino)-quinolin-6-yl]-urea], the Ki was 7.8 nM.

`Cc1nc[nH]c1CNc1ccc2nc(N[C@@H]3CCc4ccccc43)ccc2c1` [Example 17, N^2—(R)-Indan-1-yl-N^6-(5-methyl-3-H-imidazol-4-ylmethyl)-quinoline-2,6-diamine]: the Ki is 7.6 nM.

For the compound `COc1cccc2c1C(Nc1ccc3cc(Nc4cccc(C)n4)ccc3n1)CC2` (racemic) [Example 94, rac-N^2-(7-Methoxy-indan-1-yl)-N^6-(6-methyl-pyridin-2-yl)-quinoline-2,6-diamine], the Ki is 3.4 nM.

Turning to `Fc1ccc2c(c1)CCC2Nc1ccc2cc(Nc3cccc(C(F)(F)F)n3)ccc2n1` (racemic) [Example 102, rac-N^2-(5-Fluoro-indan-1-yl)-N^6-(6-trifluoromethyl-pyridin-2-yl)-quinoline-2,6-diamine], the Ki is 19.1 nM.

Take `Cn1cncc1CNC(=O)Nc1ccc2nc(N[C@@H]3CCc4ccccc43)ccc2c1` [Example 45, 1-[2-((R)-Indan-1-ylamino)-quinolin-6-yl]-3-(3-methyl-3H-imidazol-4-ylmethyl)-urea]: the Ki was 10.6 nM.

`O=C(NCc1ccc2nc(N[C@@H]3CCc4ccccc43)ccc2c1)c1ccc(F)cc1` [Example 54, 4-Fluoro-N-[2-((R)-indan-1-ylamino)-quinolin-6-ylmethyl]-benzamide]: the Ki is 141 nM.

With `c1ccc2c(c1)CC[C@H]2Nc1ccc2cc(NCc3ccncc3)ccc2n1` [Example 15, N^2—(R)-Indan-1-yl-N^6-pyridin-4-ylmethyl-quinoline-2,6-diamine], the Ki is 33.7 nM.

As for `COc1ccc(NC(=O)Nc2ccc3nc(N[C@@H]4CCc5ccccc54)ccc3c2)cc1` [Example 21, 1-[2-((R)-Indan-1-ylamino)-quinolin-6-yl]-3-(4-methoxy-phenyl)-urea], the Ki was 6.3 nM.

With `COc1ccc(CNC(=O)Nc2ccc3nc(N[C@@H]4CCc5ccccc54)ccc3c2)cc1` [Example 29, 1-[2-((R)-Indan-1-ylamino)-quinolin-6-yl]-3-(4-methoxy-benzyl)-urea], the Ki is 16.5 nM.

As to `O=C(Nc1ccccc1)Nc1ccc2nc(N[C@@H]3CCc4ccccc43)ccc2c1` [Example 16, 1-[2-((R)-Indan-1-ylamino)-quinolin-6-yl]-3-phenyl-urea], the Ki is 4.9 nM.

As to `O=C(Nc1ccc(F)cc1)Nc1ccc2nc(N[C@@H]3CCc4ccccc43)ccc2c1` [Example 19, 1-(4-Fluoro-phenyl)-3-[2-((R)-indan-1-ylamino)-quinolin-6-yl]-urea], the Ki is 6.5 nM.

For the compound `c1ccc2c(c1)CC[C@H]2Nc1ccc2cc(NCc3ncc[nH]3)ccc2n1` [Example 12, N^6-(1H-Imidazol-2-ylmethyl)-N^2—(R)-indan-1-yl-quinoline-2,6-diamine], the Ki is 16.6 nM.

Take `O=C(Nc1ccnc(Cl)c1)Nc1ccc2nc(N[C@@H]3CCc4ccccc43)ccc2c1` [Example 33, 1-(2-Chloro-pyridin-4-yl)-3-[2-((R)-indan-1-ylamino)-quinolin-6-yl]-urea]: the Ki was 18.2 nM.

On to `COc1cccc2c1C(Nc1ccc3cc(Nc4cccc(C)n4)ccc3n1)CO2` (racemic) [Example 112, rac-N^2-(4-Methoxy-2,3-dihydro-benzofuran-3-yl)-N^6-(6-methyl-pyridin-2-yl)-quinoline-2,6-diamine], for which the Ki is 8 nM.

For the compound `c1ccc2c(c1)CC[C@H]2Nc1ccc2cc(NCc3cc[nH]n3)ccc2n1` [Example 18, N^2—(R)-Indan-1-yl-N^6-(1-H-pyrazol-3-ylmethyl)-quinoline-2,6-diamine], the Ki was 9 nM.

As to `COc1cccc(COc2ccc3nc(N[C@@H]4CCc5ccccc54)ccc3c2)c1` [Example 2, (R)-Indan-1-yl-[6-(3-methoxy-benzyloxy)-quinolin-2-yl]-amine], the Ki is 92.4 nM.

For the compound `O=C(Nc1ccc(Cl)nc1)Nc1ccc2nc(N[C@@H]3CCc4ccccc43)ccc2c1` [Example 31, 1-(6-Chloro-pyridin-3-yl)-3-[2-((R)-indan-1-ylamino)-quinolin-6-yl]-urea], the Ki was 16.4 nM.

For the compound `COc1ccccc1NC(=O)Nc1ccc2nc(N[C@@H]3CCc4ccccc43)ccc2c1` [Example 23, 1-[2-((R)-Indan-1-ylamino)-quinolin-6-yl]-3-(2-methoxy-phenyl)-urea], the Ki is 25.6 nM.

Regarding `Fc1ccc(CNCc2ccc3nc(N[C@@H]4CCc5ccccc54)ccc3c2)cc1` [Example 64, {6-[(4-Fluoro-benzylamino)-methyl]-quinolin-2-yl}-(R)-indan-1-yl-amine], the Ki is 348 nM.

In the case of `C[C@@H](NC(=O)Nc1ccc2nc(N[C@@H]3CCc4ccccc43)ccc2c1)c1ccccc1` [Example 27, 1-[2-((R)-Indan-1-ylamino)-quinolin-6-yl]-3-((R)-1-phenyl-ethyl)-urea], the Ki is 9.8 nM.

On to `Cc1cccc(Nc2ccc3nc(NC4CCc5cc(F)ccc54)ccc3c2)n1` (racemic) [Example 105, rac-N^2-(5-Fluoro-indan-1-yl)-N^6-(6-methyl-pyridin-2-yl)-quinoline-2,6-diamine], for which the Ki was 6.8 nM.

As for `Cn1nccc1NC(=O)Nc1ccc2nc(N[C@@H]3CCc4ccccc43)ccc2c1` [Example 58, 1-[2-((R)-Indan-1-ylamino)-quinolin-6-yl]-3-(2-methyl-2H-pyrazol-3-yl)-urea], the Ki is 20.3 nM.

For the compound `C[C@H](NC(=O)Nc1ccc2nc(N[C@@H]3CCc4ccccc43)ccc2c1)c1ccccc1` [Example 28, 1-[2-((R)-Indan-1-ylamino)-quinolin-6-yl]-3-((S)-1-phenyl-ethyl)-urea], the Ki was 36.7 nM.

For `c1ccc2c(c1)CC[C@H]2Nc1ccc2cc(NCc3cccc4[nH]ccc34)ccc2n1` [Example 11, N^2—(R)-Indan-1-yl-N^6-(1-H-indol-4-ylmethyl)-quinoline-2,6-diamine], the Ki was 9.4 nM.

Turning to `c1ccc2c(c1)CC[C@H]2Nc1ccc2cc(NCc3nccs3)ccc2n1` [Example 13, N^2—(R)-Indan-1-yl-N^6-thiazol-2-ylmethyl-quinoline-2,6-diamine], the Ki is 7.6 nM.

Take `O=S(=O)(Nc1ccc2nc(N[C@@H]3CCc4ccccc43)ccc2c1)c1ccc(F)cc1` [Example 14, 4-Fluoro-N-[2-((R)-indan-1-ylamino)-quinolin-6-yl]-benzenesulfonamide]: the Ki was 36.4 nM.

Consider `c1ccc2c(c1)CC[C@H]2Nc1ccc2cc(NCCCn3ccnc3)ccc2n1` [Example 9, N^6-(3-Imidazol-1-yl-propyl)-N^2—(R)-indan-1-yl-quinoline-2,6-diamine], for which the Ki was 176 nM.

For the compound `Cc1noc(C)c1NC(=O)Nc1ccc2nc(N[C@@H]3CCc4ccccc43)ccc2c1` [Example 42, 1-(3,5-Dimethyl-isoxazol-4-yl)-3-[2-((R)-indan-1-ylamino)-quinolin-6-yl]-urea], the Ki was 25.8 nM.

For the compound `CN(c1ccc(Cl)cc1)S(=O)(=O)Nc1ccc2nc(N[C@@H]3CCc4ccccc43)ccc2c1` [Example 40, N-(4-chlorophenyl)-N′-{2-[(1R)-2,3-dihydro-1H-inden-1-ylamino]quinolin-6-yl}-N-methylsulfamide], the Ki is 29.6 nM.

Regarding `O=C(Nc1ccc2nc(N[C@@H]3CCc4ccccc43)ccc2c1)Nc1ccccc1F` [Example 25, 1-(2-Fluoro-phenyl)-3-[2-((R)-indan-1-ylamino)-quinolin-6-yl]-urea], the Ki was 4.2 nM.

In the case of `COc1cccc(NC(=O)Nc2ccc3nc(N[C@@H]4CCc5ccccc54)ccc3c2)c1` [Example 22, 1-[2-((R)-Indan-1-ylamino)-quinolin-6-yl]-3-(3-methoxy-phenyl)-urea], the Ki was 21.9 nM.

On to `COc1cccc2c1C(Nc1ccc3cc(NC(=O)Cn4ccnc4)ccc3n1)CC2` (racemic) [Example 100, rac-2-Imidazol-1-yl-N-[2-(7-methoxy-indan-1-ylamino)-quinolin-6-yl]-acetamide], for which the Ki was 21.2 nM.
